Results on 1 compound are retold here after article PMC11363844 (Materials Today Bio, 2024).

This assay concerns E. coli ATCC 25922. The assay can be described thus: Resistance development assay. The assay is classed as cell-based.

Consider `CNC(C)C1CCC(N)C(OC2C(N)CC(N)C(OC3OCC(C)(O)C(NC)C3O)C2O)O1` (centres unmarked) [gentamicin], for which the “day on which resistance was demonstrated” value (sequential culturing over 25 days) was “fifth”. Also, the “fold increase of MIC value” (sequential culturing, by the 23rd day) is given as 64 fold.
